Columns and labels:
Experiment in all cases: Nanosyn kinase profiling
Type in all cases: biochemical
Settings in all cases: read-out: Percentage inhibition; for inhibition at 0.1 µM: 0.1 µM inhibitor; for inhibition at 1 µM: 1 µM inhibitor
AURKA = molecular target: T1, AURKA (Homo sapiens, UniProt O14965)
T1 construct: purchased Nanosyn (enzymatic panel); SGC in-house recombinant human kinases (DSF panel); Invitrogen (ALK1-6)
T1 sequence (O14965 1-403): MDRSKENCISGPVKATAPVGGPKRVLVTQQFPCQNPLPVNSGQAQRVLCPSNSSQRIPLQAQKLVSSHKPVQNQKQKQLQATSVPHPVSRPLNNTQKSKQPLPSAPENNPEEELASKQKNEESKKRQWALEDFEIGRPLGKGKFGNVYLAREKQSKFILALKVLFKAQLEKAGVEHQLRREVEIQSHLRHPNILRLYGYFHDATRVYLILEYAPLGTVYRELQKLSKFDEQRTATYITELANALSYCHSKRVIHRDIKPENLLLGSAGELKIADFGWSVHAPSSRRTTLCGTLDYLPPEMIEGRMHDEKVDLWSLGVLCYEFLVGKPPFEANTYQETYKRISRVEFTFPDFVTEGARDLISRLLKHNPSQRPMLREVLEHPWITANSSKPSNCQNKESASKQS
Experimental: (§1) Percentage inhibition was determined for each kinase at both 0.1 µM and 1 µM inhibitor concentration (supplemental Table S2). […]. […]. When visualized on a kinase phylogenetic tree, these were primarily clustered within the receptor tyrosine kinases (TKs) as well as the calmodulin-dependent kinases (CAMKs) (Figure 2C).
(§2) Inhibitor selectivity profiling against 200 human kinases at 0.1 and 1 µM inhibitor concentration was performed by Nanosyn (www.nanosyn.com).

FER = molecular target: T2, FER (Homo sapiens, UniProt P16591)
T2 construct: purchased Nanosyn (enzymatic panel); SGC in-house recombinant human kinases (DSF panel); Invitrogen (ALK1-6)
T2 sequence (P16591 whole entry): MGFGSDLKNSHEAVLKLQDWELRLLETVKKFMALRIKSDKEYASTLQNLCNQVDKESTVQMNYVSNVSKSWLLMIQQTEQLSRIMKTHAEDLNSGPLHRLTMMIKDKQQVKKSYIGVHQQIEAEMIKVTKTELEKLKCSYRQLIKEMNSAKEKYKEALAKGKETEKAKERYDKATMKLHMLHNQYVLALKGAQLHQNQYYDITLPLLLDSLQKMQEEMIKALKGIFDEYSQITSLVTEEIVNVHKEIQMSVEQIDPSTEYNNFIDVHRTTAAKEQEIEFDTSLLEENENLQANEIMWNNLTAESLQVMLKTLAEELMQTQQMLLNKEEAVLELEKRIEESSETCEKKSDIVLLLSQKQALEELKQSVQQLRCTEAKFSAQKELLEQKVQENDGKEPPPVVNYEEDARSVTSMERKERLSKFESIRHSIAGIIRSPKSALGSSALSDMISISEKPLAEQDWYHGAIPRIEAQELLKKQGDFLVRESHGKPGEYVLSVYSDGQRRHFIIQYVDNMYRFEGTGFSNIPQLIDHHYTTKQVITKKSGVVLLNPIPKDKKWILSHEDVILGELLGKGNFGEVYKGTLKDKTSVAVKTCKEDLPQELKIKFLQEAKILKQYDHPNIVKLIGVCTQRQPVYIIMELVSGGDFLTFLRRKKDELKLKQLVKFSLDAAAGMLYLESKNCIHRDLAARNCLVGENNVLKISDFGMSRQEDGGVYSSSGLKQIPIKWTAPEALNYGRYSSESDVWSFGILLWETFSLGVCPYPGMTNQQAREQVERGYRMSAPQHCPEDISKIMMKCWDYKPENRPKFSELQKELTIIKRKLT
Experimental: as §1, §2

FGFR3 = molecular target: T3, FGFR3 (Homo sapiens, UniProt P22607)
T3 construct: purchased Nanosyn (enzymatic panel); SGC in-house recombinant human kinases (DSF panel); Invitrogen (ALK1-6)
T3 sequence (P22607 23-806): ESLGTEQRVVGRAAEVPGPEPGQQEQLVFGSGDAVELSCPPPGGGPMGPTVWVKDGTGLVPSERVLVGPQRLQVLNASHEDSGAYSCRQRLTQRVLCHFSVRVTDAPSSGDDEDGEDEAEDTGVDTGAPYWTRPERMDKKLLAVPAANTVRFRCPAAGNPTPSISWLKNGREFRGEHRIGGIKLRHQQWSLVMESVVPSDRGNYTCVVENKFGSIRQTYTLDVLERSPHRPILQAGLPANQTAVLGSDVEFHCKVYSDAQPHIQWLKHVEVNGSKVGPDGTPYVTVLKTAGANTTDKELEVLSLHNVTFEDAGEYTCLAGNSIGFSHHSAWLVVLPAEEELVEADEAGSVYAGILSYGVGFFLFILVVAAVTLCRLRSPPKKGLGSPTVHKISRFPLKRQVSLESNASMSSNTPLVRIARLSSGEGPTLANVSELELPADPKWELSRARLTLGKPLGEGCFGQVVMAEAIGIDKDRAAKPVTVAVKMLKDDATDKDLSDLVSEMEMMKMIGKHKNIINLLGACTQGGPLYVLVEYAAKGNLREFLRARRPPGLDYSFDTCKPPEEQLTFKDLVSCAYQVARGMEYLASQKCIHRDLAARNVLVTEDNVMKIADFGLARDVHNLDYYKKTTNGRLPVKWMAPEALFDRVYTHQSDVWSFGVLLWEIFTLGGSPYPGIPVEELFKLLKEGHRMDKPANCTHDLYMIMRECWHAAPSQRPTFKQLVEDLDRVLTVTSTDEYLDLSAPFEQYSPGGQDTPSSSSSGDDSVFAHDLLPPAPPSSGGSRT
Experimental: as §1, §2

FGFR4 = molecular target: T4, FGFR4 (Homo sapiens, UniProt P22455)
T4 construct: purchased Nanosyn (enzymatic panel); SGC in-house recombinant human kinases (DSF panel); Invitrogen (ALK1-6)
T4 sequence (P22455 22-802): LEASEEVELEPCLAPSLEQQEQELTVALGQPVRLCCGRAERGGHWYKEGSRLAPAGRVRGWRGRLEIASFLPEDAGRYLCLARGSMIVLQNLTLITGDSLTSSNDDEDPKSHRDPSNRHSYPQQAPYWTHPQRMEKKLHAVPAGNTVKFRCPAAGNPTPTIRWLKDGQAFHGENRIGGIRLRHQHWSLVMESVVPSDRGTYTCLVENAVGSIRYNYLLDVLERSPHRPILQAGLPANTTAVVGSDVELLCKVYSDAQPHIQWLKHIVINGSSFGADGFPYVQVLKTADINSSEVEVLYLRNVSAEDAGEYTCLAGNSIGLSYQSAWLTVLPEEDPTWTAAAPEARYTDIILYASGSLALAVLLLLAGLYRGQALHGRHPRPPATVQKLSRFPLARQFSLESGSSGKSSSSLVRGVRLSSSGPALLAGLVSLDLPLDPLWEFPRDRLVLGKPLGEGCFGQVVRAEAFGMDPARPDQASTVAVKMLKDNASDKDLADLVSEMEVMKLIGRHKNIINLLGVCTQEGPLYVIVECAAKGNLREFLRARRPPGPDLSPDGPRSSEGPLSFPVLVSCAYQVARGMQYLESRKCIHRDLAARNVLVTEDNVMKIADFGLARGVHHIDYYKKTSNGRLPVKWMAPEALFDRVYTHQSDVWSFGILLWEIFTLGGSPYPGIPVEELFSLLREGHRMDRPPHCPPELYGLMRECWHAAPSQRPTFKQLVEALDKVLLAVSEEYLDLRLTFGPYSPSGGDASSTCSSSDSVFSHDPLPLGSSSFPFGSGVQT
Experimental: as §1, §2

IKK-α = molecular target: T5, IKK-α (Homo sapiens, UniProt O15111)
T5 construct: purchased Nanosyn (enzymatic panel); SGC in-house recombinant human kinases (DSF panel); Invitrogen (ALK1-6)
T5 sequence (O15111 1-745): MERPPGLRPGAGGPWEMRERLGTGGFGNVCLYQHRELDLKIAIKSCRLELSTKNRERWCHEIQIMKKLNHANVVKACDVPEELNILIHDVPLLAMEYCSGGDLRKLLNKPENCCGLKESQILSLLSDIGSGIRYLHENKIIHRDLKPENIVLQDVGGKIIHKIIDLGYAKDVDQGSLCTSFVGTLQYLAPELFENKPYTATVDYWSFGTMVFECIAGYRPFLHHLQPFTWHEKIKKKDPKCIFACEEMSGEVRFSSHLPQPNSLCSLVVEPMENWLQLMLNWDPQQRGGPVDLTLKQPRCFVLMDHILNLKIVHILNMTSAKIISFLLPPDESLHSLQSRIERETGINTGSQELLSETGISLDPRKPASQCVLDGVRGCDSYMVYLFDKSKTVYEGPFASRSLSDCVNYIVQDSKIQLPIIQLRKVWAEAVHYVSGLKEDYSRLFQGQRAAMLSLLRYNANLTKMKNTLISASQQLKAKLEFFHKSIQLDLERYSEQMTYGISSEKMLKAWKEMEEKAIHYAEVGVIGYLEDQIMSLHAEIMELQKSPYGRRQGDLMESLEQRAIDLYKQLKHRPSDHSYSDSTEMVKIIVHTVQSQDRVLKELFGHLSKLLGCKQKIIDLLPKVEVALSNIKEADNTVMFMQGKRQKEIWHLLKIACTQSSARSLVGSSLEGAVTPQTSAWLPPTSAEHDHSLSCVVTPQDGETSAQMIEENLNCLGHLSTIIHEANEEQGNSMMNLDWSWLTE
Experimental: as §1, §2

IRR = molecular target: T6, IRR (Homo sapiens, UniProt P14616)
T6 construct: purchased Nanosyn (enzymatic panel); SGC in-house recombinant human kinases (DSF panel); Invitrogen (ALK1-6)
T6 sequence (P14616 27-1297): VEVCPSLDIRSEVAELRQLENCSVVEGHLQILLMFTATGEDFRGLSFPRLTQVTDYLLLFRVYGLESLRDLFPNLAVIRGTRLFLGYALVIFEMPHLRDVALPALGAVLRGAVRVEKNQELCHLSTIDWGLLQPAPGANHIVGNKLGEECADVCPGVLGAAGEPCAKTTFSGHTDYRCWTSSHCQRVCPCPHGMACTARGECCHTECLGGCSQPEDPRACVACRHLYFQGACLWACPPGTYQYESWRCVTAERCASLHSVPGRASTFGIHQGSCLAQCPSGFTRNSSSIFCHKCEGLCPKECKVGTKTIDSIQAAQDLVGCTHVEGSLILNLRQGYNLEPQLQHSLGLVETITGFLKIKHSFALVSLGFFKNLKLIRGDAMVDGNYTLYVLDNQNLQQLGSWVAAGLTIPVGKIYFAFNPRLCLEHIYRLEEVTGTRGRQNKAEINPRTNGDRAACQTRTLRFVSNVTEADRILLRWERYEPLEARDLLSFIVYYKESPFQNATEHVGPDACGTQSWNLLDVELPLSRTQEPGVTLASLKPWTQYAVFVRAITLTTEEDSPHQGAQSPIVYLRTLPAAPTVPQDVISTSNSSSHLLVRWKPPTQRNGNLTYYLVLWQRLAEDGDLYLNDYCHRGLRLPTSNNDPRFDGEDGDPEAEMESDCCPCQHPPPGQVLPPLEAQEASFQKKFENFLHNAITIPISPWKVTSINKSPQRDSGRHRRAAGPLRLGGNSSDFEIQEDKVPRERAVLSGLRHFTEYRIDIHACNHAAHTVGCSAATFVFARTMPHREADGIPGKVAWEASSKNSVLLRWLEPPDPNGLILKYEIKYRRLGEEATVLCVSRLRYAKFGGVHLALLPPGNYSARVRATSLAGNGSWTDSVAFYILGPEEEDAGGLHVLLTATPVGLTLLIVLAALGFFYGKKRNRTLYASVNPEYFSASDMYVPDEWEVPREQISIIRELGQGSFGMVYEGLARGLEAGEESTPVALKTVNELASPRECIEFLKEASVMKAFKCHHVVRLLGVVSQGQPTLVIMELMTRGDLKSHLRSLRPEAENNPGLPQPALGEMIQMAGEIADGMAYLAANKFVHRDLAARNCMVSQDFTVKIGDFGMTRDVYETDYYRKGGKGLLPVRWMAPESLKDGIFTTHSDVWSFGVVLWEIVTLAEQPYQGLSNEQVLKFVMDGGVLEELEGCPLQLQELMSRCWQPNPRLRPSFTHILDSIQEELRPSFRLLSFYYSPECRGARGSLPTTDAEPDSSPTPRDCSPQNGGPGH
Experimental: as §1, §2

MEK1 = molecular target: T7, MEK1 (Homo sapiens, UniProt Q02750)
T7 construct: purchased Nanosyn (enzymatic panel); SGC in-house recombinant human kinases (DSF panel); Invitrogen (ALK1-6)
T7 sequence (Q02750 whole entry): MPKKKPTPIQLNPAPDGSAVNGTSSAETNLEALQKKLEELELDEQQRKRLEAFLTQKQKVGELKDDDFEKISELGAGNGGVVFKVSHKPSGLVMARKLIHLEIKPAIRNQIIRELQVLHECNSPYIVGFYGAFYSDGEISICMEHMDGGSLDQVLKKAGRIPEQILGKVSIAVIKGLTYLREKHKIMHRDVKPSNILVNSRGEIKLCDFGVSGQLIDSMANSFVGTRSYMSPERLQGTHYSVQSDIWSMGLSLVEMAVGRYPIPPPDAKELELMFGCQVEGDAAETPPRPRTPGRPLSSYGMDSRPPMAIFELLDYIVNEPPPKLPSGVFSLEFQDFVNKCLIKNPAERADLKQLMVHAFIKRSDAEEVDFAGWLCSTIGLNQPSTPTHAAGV
Experimental: as §1, §2

PAK6 = molecular target: T8, PAK6 (Homo sapiens, UniProt Q9NQU5)
T8 construct: purchased Nanosyn (enzymatic panel); SGC in-house recombinant human kinases (DSF panel); Invitrogen (ALK1-6)
T8 sequence (Q9NQU5 whole entry): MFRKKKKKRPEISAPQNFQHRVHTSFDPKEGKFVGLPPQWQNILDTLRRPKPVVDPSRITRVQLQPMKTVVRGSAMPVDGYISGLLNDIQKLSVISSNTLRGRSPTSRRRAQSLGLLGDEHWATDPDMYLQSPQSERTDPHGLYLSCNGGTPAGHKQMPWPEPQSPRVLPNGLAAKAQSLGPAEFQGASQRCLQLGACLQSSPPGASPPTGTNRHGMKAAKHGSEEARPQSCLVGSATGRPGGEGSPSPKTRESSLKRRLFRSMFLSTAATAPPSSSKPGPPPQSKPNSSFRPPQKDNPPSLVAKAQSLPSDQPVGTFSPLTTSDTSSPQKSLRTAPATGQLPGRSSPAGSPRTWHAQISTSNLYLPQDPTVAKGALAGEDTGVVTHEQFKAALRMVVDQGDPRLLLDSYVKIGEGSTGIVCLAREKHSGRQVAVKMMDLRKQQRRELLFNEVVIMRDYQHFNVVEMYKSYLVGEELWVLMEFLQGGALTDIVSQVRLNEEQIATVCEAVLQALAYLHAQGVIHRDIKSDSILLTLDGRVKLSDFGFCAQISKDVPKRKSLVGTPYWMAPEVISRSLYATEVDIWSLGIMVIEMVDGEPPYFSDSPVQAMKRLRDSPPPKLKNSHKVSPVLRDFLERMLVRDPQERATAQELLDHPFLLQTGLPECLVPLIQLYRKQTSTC
Experimental: as §1, §2

SGK2 = molecular target: T9, SGK2 (Homo sapiens, UniProt Q9HBY8)
T9 construct: purchased Nanosyn (enzymatic panel); SGC in-house recombinant human kinases (DSF panel); Invitrogen (ALK1-6)
T9 sequence (Q9HBY8 1-367): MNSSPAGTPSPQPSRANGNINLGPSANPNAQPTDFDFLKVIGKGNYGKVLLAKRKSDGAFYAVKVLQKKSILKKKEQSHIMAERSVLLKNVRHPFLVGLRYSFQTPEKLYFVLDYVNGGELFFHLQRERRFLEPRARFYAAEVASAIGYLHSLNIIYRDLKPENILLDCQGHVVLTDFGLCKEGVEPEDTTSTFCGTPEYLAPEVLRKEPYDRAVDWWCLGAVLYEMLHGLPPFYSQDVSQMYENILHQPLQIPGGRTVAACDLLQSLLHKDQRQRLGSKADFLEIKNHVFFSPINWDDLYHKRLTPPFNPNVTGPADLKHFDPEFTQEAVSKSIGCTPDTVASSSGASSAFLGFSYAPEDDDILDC
Experimental: as §1, §2

TNK1 = molecular target: T10, TNK1 (Homo sapiens, UniProt Q13470)
T10 construct: purchased Nanosyn (enzymatic panel); SGC in-house recombinant human kinases (DSF panel); Invitrogen (ALK1-6)
T10 sequence (Q13470 1-666): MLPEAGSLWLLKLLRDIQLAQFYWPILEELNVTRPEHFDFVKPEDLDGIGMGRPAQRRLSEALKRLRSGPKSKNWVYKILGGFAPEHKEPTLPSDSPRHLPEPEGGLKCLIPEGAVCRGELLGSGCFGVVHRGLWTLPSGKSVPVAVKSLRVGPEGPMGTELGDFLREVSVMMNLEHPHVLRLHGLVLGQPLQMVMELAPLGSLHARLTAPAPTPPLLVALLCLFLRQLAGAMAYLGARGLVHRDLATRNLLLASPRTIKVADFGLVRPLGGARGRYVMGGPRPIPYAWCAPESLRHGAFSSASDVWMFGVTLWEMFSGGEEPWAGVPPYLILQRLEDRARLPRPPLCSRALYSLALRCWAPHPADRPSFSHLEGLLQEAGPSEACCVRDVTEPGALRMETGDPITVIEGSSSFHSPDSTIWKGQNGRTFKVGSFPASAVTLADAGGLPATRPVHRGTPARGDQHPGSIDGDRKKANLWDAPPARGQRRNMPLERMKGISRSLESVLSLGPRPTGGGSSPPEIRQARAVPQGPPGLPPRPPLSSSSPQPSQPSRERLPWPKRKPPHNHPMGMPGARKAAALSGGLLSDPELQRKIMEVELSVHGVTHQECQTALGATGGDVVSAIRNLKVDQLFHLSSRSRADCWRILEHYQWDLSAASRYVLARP
Experimental: as §1, §2

SMILES	inhibition at 0.1 µM (AURKA)	inhibition at 1 µM (AURKA)	inhibition at 0.1 µM (FER)	inhibition at 1 µM (FER)	inhibition at 0.1 µM (FGFR3)	inhibition at 1 µM (FGFR3)	inhibition at 0.1 µM (FGFR4)	inhibition at 1 µM (FGFR4)	inhibition at 0.1 µM (IKK-α)	inhibition at 1 µM (IKK-α)	inhibition at 0.1 µM (IRR)	inhibition at 1 µM (IRR)	inhibition at 0.1 µM (MEK1)	inhibition at 1 µM (MEK1)	inhibition at 0.1 µM (PAK6)	inhibition at 1 µM (PAK6)	inhibition at 0.1 µM (SGK2)	inhibition at 1 µM (SGK2)	inhibition at 0.1 µM (TNK1)	inhibition at 1 µM (TNK1)
COc1cc(-c2cc(-c3cccc(O)c3)cnc2N)cc(OC)c1OC [K02288, 3-[6-amino-5-(3,4,5-trimethoxy-phenyl)-pyridin-3-yl]-phenol]	-2%	-1%	0.8%	7.5%	-2%	0.2%	4%	0%	7.4%	2.7%	-1%	-1%	-1%	10%	0.8%	1.9%	2.7%	1.3%	0.4%	10%
c1ccc2c(-c3cnn4cc(-c5ccc(N6CCNCC6)cc5)cnc34)ccnc2c1 [LDN-193189]	4.2%	23%	2.8%	3.7%	5%	16%	0.3%	2.4%	3%	-2%	1.9%	2.2%	1.4%	1%	8.8%	5.1%	2.3%	0.2%	18%	63%

Source: PMC3639963, “A New Class of Small Molecule Inhibitor of BMP Signaling” (PLoS ONE, 2013)
